# Test results published in patent US10301314B2, “Compounds and methods for the prevention and treatment of tumor metastasis and tumorigenesis” (The United States of America, as represented by the …, priority 2011, dated 2019).
# Legend:
# [1] = test system: PC3M reporter cell line stably expressing the PTB-GFP; assay: ATP quantitation assay (ATPLite); format: cell-based, human; conditions: Table 4, PC3M cells, 24 hrs incubation; for IC50: Homo sapiens, PC-3M
# Method: This follow-up assay was conducted to measure the effect of compounds on cell health by measuring ATP levels (ATPLite™). ATPLite™ is an ATP monitoring system based on firefly (Photinus pyralis) luciferase. The level of ATP in a metabolically active cell is a general marker for its viability. ATP levels are often reduced during necrosis or apoptosis. In this assay, the luciferase enzyme catalyzes the conversion of the added substrate D-luciferin to oxyluciferin and light with ATP. Thus, the emitted light is proportional to the ATP concentration. For this assay, the highly metastatic PC3M reporter cell line stably expressing the PTB-GFP was provided by Professor Sui Huang of Northwestern University. The media and cell culture reagents were purchased from Invitrogen (Carlsbad, Calif.), ATPLite™ came from PerkinElmer.
# [2] = test system: PC3M cell line that stably expresses GFP-PTB to mark PNCs; assay: High content assay for PNC detection (reduction of PNC prevalence); format: cell-based, human; conditions: Table 4, PC3M GFP-PTB cells, 16 hrs incubation; for IC50: Homo sapiens, PC-3M
# From the text: The quantitative output for this assay is the reduction of PNC prevalence. The PNC can be detected in living cells by the expression of a green fluorescent protein (GFP) tagged to the PNC localized protein, PTB. A PC3M cell line was used that stably expresses GFP-PTB to mark PNCs. This method eliminates the need for immunofluorescent staining.
# The IN Cell Analyzer 1000 automated fluorescent imaging system (GE Healthcare, Piscataway, N.J.) was used for automated image acquisition. […] The instrument acquired images of each well in a 1536-well plate with a laser-based autofocus system. To score PNC prevalence in a high-content throughput, the Multi-Target Analysis (MTA) algorithm (GE Healthcare, Investigator v3.5) to identify individual cells and granules (PNCs) within these cells was used. The nucleus was segmented via a region growing method (50 μm^2 minimum area) with light shading and noise removal to allow “touching” nuclei to be separated. Granules in the nucleus (PNCs) were segmented using a multiscale top hat method, which measures granules of 1 to 2 μm in size and used a smart masking method to identify the boundaries of each segmented granule. The algorithm was optimized and validated using positive and negative controls (50 μM camptothecin and DMSO, respectively). In particular, the MTA algorithm allows for the identification of multiple subcellular compartments and organelles (or granules) within those compartments. In this instance, the algorithm's capability to identify objects within the same color channel that only differ in size or fluorescent intensity was utilized. Also, the algorithm allows for building complex hierarchical classification systems, using output measures within the algorithm to filter and define subpopulations. For this particular assay, PNC-positive cells were scored when 1 to 3 PNC granules were detected per nucleus. Cells that contained 0 granules were scored as PNC negative, and cells with >3 granules were assumed to be false positives (very few cells have more than 3 PNCs in one focus plane), and were also scored as PNC negative.
Structure (SMILES),IC50 [1],IC50 [2],ATP IC50(μM) [1],PNC IC50(μM) [2]
COc1ccc(-c2c(-c3ccc(OC)cc3)n(Cc3ccccc3)c3ncn([C@H]4CC[C@H](OC)CC4)c(=N)c23)cc1 [Compound 93],60.7 µM,7.43 µM,,
COc1ccc(-c2c(-c3ccc(OC)cc3)n(Cc3ccccc3)c3ncn([C@H]4CC[C@H](O)CC4)c(=N)c23)cc1 [Compound 94],24.1 µM,9.35 µM,,
N=c1c2c(-c3ccccc3)c(-c3ccccc3)n(CC3CCCCC3)c2ncn1CC1CCOCC1 [Compound 95],24.1 µM,11.8 µM,,
N=c1c2c(-c3ccccc3)cn(Cc3ccccc3)c2ncn1C(CO)(CO)CO [Compound 99],,14.8 µM,inactive,
COc1ccc(-c2c(-c3ccc(OC)cc3)n(Cc3ccccc3)c3ncn(C4CCCC[C@H]4O)c(=N)c23)cc1 (some centres unmarked) [Compound 100],48.2 µM,14.8 µM,,
N=c1c2c(-c3ccccc3)c(-c3ccccc3)n(CC3CCCCC3)c2ncn1C[C@H]1CCCC[C@@H]1O [Compound 101],24.1 µM,14.8 µM,,
COc1ccc(-c2c(-c3ccc(OC)cc3)n(Cc3ccccc3)c3ncn(C4CCOCC4)c(=N)c23)cc1 [Compound 104],30.4 µM,23.5 µM,,
N=c1c2c(-c3ccccc3)c(-c3ccccc3)n(CC3CCCCC3)c2ncn1CCCO [Compound 106],30.4 µM,23.5 µM,,
N=c1c2c(-c3ccccc3)cn(Cc3ccccc3)c2ncn1CCCCCO [Compound 109],96.1 µM,46.9 µM,,
N=c1c2c(-c3ccccc3)cn(Cc3ccc(Br)cc3)c2ncn1CCCN1CCN(c2ccccc2)CC1 [Compound 110],30.4 µM,46.9 µM,,
COc1ccc(-c2c(-c3ccc(OC)cc3)n(Cc3ccccc3)c3ncn(C4CCCC[C@H]4CO)c(=N)c23)cc1 (some centres unmarked) [Compound 113],30.4 µM,,,inactive
COC(=O)C[C@H](C(=O)OC)n1cnc2c(c(-c3ccccc3)cn2Cc2ccc(Br)cc2)c1=N [Compound 114],,,inactive,inactive
COCCn1cnc2c(c(-c3ccccc3)cn2Cc2ccccc2)c1=N [Compound 115],121 µM,,,inactive
CC[Si](CC)(CC)OCCCn1cnc2c(c(-c3ccccc3)cn2Cc2ccc(Br)cc2)c1=N [Compound 116],,,inactive,inactive
N=c1c2c(-c3ccccc3)cn(Cc3ccccc3)c2ncn1[C@@H]1CCCC[C@H]1N [Compound 117],96.1 µM,,,inactive
N=c1c2c(-c3ccccc3)cn(Cc3ccccc3)c2ncn1CCCO [Compound 118],121 µM,,,inactive
N=c1c2c(-c3ccccc3)cn(Cc3ccccc3)c2ncn1CCCCO [Compound 120],241 µM,,,inactive
N=c1c2c(-c3ccccc3)cn(Cc3ccccc3)c2ncn1C1CCOCC1 [Compound 122],,,inactive,inactive
COc1ccc(-c2c(-c3ccc(OC)cc3)n(Cc3ccccc3)c3ncn(CC4CCOCC4)c(=N)c23)cc1 [Compound 123],24.1 µM,,,inactive
C#CCn1cnc2c(c(-c3ccccc3)cn2Cc2ccccc2)c1=N [Compound 124],,,inactive,inactive
N=c1c2c(-c3ccccc3)cn(Cc3ccccc3)c2ncn1CC1CCCO1 (centres unmarked) [Compound 127],96.1 µM,,,inactive
COC(=O)C[C@@H](C(=O)OC)n1cnc2c(c(-c3ccccc3)cn2Cc2ccccc2)c1=N [Compound 128],,,inactive,inactive
COc1ccc(-c2c(-c3ccc(OC)cc3)n(Cc3ccccc3)c3ncn(CC4COC4)c(=N)c23)cc1 [Compound 129],,,inactive,inactive
COc1ccc(CCn2cnc3c(c(-c4ccccc4)cn3Cc3ccccc3)c2=N)cc1OC [Compound 130],24.1 µM,,,inactive
N=c1c2c(-c3ccccc3)cn(Cc3ccccc3)c2ncn1CCNCCO [Compound 131],121 µM,,,inactive
COc1ccc(-c2c(-c3ccc(OC)cc3)n(Cc3ccccc3)c3ncn([C@H]4CC[C@@H](O)CC4)c(=N)c23)cc1 [Compound 132],,,inactive,inactive
COc1ccc(-c2c(-c3ccc(OC)cc3)n(Cc3ccccc3)c3ncn(CCCO)c(=N)c23)cc1 [Compound 135],30.4 µM,,,inactive
N=c1c2c(-c3ccccc3)cn(Cc3ccccc3)c2ncn1CCN [Compound 136],,,inactive,inactive
N=c1c2c(-c3ccccc3)cn(Cc3ccccc3)c2ncn1[C@H]1CC[C@H](O)CC1 [Compound 139],,,inactive,inactive
N=c1c2c(-c3ccccc3)cn(Cc3ccccc3)c2ncn1CCO [Compound 140],,,inactive,inactive

# Now from value to molecule:
IC50 [1],IC50 [2],ATP IC50(μM) [1],PNC IC50(μM) [2],Structure (SMILES)
76.4 µM,5.9 µM,,,N=c1c2c(-c3ccccc3)c(-c3ccccc3)n(CCc3ccccc3)c2ncn1CC1CCOCC1 [Compound 90]
30.4 µM,5.9 µM,,,N=c1c2c(-c3ccccc3)c(-c3ccccc3)n(Cc3ccc(OC(F)(F)F)cc3)c2ncn1CC1CCOCC1 [Compound 91]
30.4 µM,11.8 µM,,,N=c1c2c(-c3ccccc3)c(-c3ccccc3)n(Cc3ccccc3)c2ncn1CCCN1CCN(c2ccccc2)CC1 [Compound 96]
121 µM,14.8 µM,,,COc1ccc(Cn2c(-c3ccccc3)c(-c3ccccc3)c3c(=N)n(N4CCOCC4)cnc32)cc1 [Compound 98]
25.7 µM,15.8 µM,,,N=c1c2c(-c3ccccc3)c(-c3ccccc3)n(Cc3ccco3)c2ncn1Cc1ccccc1 [Compound 102]
24.1 µM,18.7 µM,,,COc1ccc(-c2c(-c3ccc(OC)cc3)n(Cc3ccccc3)c3ncn(CCO)c(=N)c23)cc1 [Compound 103]
304 µM,23.5 µM,,,N=c1c2c(-c3ccccc3)c(-c3ccccc3)n(Cc3ccc(S(N)(=O)=O)cc3)c2ncn1CCCO [Compound 105]
32.4 µM,25 µM,,,N=c1c2c(-c3ccccc3)c(-c3ccccc3)n(Cc3ccco3)c2ncn1CCCN1CCOCC1 [Compound 107]
38.3 µM,29.6 µM,,,N=c1c2c(-c3ccccc3)c(-c3ccccc3)n(Cc3ccccc3)c2ncn1[C@H](CO)Cc1ccccc1 [Compound 108]
121 µM,93.5 µM,,,N=c1c2c(-c3ccccc3)cn(Cc3ccccc3)c2ncn1[C@H](CO)Cc1ccccc1 [Compound 111]
60.7 µM,,,inactive,COc1ccc(Cn2c(-c3ccccc3)c(-c3ccccc3)c3c(=N)n([C@H](C)[C@@H](O)c4ccccc4)cnc32)cc1 [Compound 112]
121 µM,,,inactive,C[C@H]([C@@H](O)c1ccccc1)n1cnc2c(c(-c3ccccc3)cn2Cc2ccccc2)c1=N [Compound 119]
121 µM,,,inactive,COC(=O)c1ccc(Cn2cnc3c(c(-c4ccccc4)cn3Cc3ccccc3)c2=N)cc1 [Compound 121]
30.4 µM,,,inactive,N=c1c2c(-c3ccccc3)cn(Cc3ccccc3)c2ncn1CCCN1CCN(c2ccccc2)CC1 [Compound 125]
96.1 µM,,,inactive,N=c1c2c(-c3ccccc3)c(-c3ccccc3)n(Cc3ccccc3)c2ncn1CC1COC1 [Compound 126]
60.7 µM,,,inactive,N=c1c2c(-c3ccccc3)c(-c3ccccc3)n(CC3CC3)c2ncn1CC1CCOCC1 [Compound 134]
,,inactive,inactive,OCCNc1ncnc2c1c(-c1ccccc1)c(-c1ccccc1)n2Cc1ccco1 [Compound 137]
60.7 µM,,,inactive,N=c1c2c(-c3ccccc3)cn(Cc3ccccc3)c2ncn1Cc1ccco1 [Compound 138]
20.4 µM,15.8 µM,,,CC(C)Cn1cnc2c(c(-c3ccccc3)c(-c3ccccc3)n2Cc2ccco2)c1=N [Compound 141]
